Results published in patent US5744462A, “Steroids useful as anti-cancer and anti-obesity agents” (Research Corporation Technologies, Inc., priority 1995, dated 1998).
“Also recorded” adds a separate entry of the source.

Key:
[1] = after carcinogen; cited from earlier work
[2] = in vivo; cited from earlier work
[3] = DMBA-initiated and TPA-promoted; cited from earlier work
[4] = topical, complete carcinogenesis model; cited from earlier work
[5] = target: purified bovine adrenal G6PDH (Bos taurus, UniProt F1MMK2); assay: G6PDH inhibition test; format: biochemical; conditions: individual determinations
purified bovine adrenal G6PDH, sequence (F1MMK2 31-70): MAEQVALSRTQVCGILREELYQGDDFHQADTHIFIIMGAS
purified bovine adrenal G6PDH, sequence (F1MMK2 101-575): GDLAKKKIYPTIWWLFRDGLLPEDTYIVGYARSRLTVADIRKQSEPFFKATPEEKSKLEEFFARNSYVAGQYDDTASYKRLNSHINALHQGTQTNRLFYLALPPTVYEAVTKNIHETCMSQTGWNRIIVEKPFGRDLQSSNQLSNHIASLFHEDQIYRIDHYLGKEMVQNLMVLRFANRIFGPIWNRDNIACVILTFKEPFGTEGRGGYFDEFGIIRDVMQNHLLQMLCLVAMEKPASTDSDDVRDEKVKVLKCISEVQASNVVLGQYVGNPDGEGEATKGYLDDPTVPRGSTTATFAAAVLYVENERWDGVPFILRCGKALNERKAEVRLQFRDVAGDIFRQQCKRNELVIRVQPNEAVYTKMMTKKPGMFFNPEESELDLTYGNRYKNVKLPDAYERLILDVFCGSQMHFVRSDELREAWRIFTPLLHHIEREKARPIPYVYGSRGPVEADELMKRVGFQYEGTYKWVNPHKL
Description: The compound listed below are screened as inhibitors of purified bovine adrenal G6PDH activity as one predictor of cancer preventive action. The assay for testing the inhibition of purified bovine adrenal G6PDH is according to the procedure by Oertell, G. W. and Rebelein, I. in Biochem. Biophys. Acta, 184, 459-460 (1969).

[6] = Estrogenic and anti-estrogenic activity, uterine weight; format: in vivo, rat (female CD); conditions: Table 2a; 60 mg/kg s.c. for 3 days; control 1.95 ± 0.22; DHEA significantly greater than control, p < 0.001
Procedure: Estrogenic and Anti-Estrogenic Activity
Female CD rats, 26-27 days old, were injected subcutaneously for 3 days with one of the compounds of the present invention at 60 mg/kg in propylene glycol. Controls received propylene glycol alone. On the 4th day, the rats were killed and the uteri were dissected out and weighed.

[7] = test system: mouse epidermis (TPA stimulated 3H-thymidine incorporation); assay: TPA stimulation of 3H-thymidine incorporation in mouse epidermis, oral steroid; format: in vivo, mouse (male ICR); conditions: Table 9, no steroid 55.1, TPA alone 118
Procedure: Tumor promoters, such as TPA, stimulate hyperplasia and DNA synthesis when applied to the skin, and it is believed that this stimulation is an important step in the enhancement of tumorigenesis.
Male ICR mice were orally intubated with steroid suspended in sesame oil (0.5 ml/mouse) at the indicated dose. Mice not receiving steroid were given sesame oil alone. One hour later mice received topical application of TPA and 20 hours later the rate of ^3 H-thymidine incorporation into the epidermis was determined as described in Pashko, L. L., Schwartz, A. G., Abou-Gharbia, M., and Swern, D. (1981), Inhibition of DNA synthesis in mouse epidermis and breast epithelium by dehydroepiandrosterone and related steroids, Carcinogenesis, 2,-717-721.
Experimental conditions are the same as in Table 3.

mouse skin DNA = assay: (3H) DMBA binding to skin DNA; format: in vivo, mouse (A/J); conditions: oral, mice, doses well below 400 mg/kg
[8] = Anti-obesity action, body weight, female Balb/c mice; format: in vivo, mouse (female Balb/c); conditions: 0.25% in diet
Procedure: Female Balb/c (8 weeks old) mice were obtained from
the Jackson Laboratory and were housed in polycarbonate cages
(6 mice/cage) in animal quarters maintained at 24 ± 1° C. with
12 hours of light and 12 hours of darkness each day. One
week after arrival, the mice were placed on a diet containing
either DHEA, 8354, or without steroid. Animals were weighed

[9] = Liver weight after three weeks of diet treatment; format: in vivo, mouse (female Balb/c); conditions: 0.25% of diet
Procedure: (§1) Female Balb/c mice were housed in polycarbonate cages (6/mice/cage) in animal quarters maintained at 24°±1° C. with 12 hours of light and 12 hours of dark each day. The mice were placed on a diet containing either DHEA, 8354, A, B clofibrate or with no addition. Three weeks later the mice were killed, the livers were perfused with cold saline, weighed, and 5% liver homogenates were prepared for the determination of catalase activity by the spectrophotometric method of Luck (H. Luck, in Method in Enzyme Analysis, H. U. Bergmeyer, Ed. (Verlag Chemie, Weinheim/Bergstrasse, Germany, 1965)). Total protein was measured by the method of Lowry, et al. (O. H. Lowry, N. J. Rosebrough, A. L. Farr, R. J. Randall, J. Biol. Chem., 193, 265 (1951)).

liver catalase = assay: Liver catalase activity after three weeks of diet treatment; format: in vivo, mouse (female Balb/c); conditions: 0.25% of diet
Procedure: as §1

[10] = Estrogenic / androgenic side-effects, general statements; conditions: in vivo
[11] = Anti-weight effect in mice, general statements; format: in vivo, mouse
Description: (Table 9 vs Table 5 and Table 6). […] Thus the cancer preventive the cancer preventive effect of DHEA may result indirectly from its anti-weight action rather than from a direct effect of DHEA or target cells.

[12] = test system: mammalian glucose-6-phosphate dehydrogenase (G6PDH); conditions: cited from earlier work
[13] = test system: human lymphocytes (Epstein-Barr virus-induced transformation); conditions: cited from earlier work

CCCCC(CC)COC(=O)c1ccccc1C(=O)OCC(CC)CCCC (centres unmarked) [di(2-ethylhexyl)-phthalate]
liver basophilic lesions, enzyme-negative [1]: also produced | effect on liver (type of hepatomegaly) [2]: Typical peroxisome proliferators

C[C@H]1CC[C@@]2(C)C(=CC[C@@H]3[C@@H]2CC[C@]2(C)C(=O)CC[C@@H]32)C1 [3β-methylandrost-5-en-17-one]
skin papilloma formation [3]: inhibit | DMBA produced papillomas and carcinomas [4]: inhibits DMBA produced papillomas and carcinomas

C[C@]12CCCCC1=CC[C@@H]1[C@@H]2CC[C@]2(C)C(=O)[C@H](F)C[C@@H]12 [Compound 8354]
Percent Inhibition of G6PDH ([5]; 10^-5 M): 83% | inhibition at 10 µM ([5]; 10^-5 M, read-out: Percent Inhibition of G6PDH): 79% | Percent Inhibition of G6PDH ([5]; 10^-6 M): 77% | inhibition at 1 µM ([5]; 10^-6 M, read-out: Percent Inhibition of G6PDH): 75% | Mean Uterine Weigh ± S.D. [6]: 1.93 ± 0.29 | SPECIFIC ACTIVITY, TPA stimulated 3H-thymidine incorporation ([7]; oral 25 mg/kg): 47.9 ± 2.0 cpm/ug DNA | SPECIFIC ACTIVITY, TPA stimulated 3H-thymidine incorporation ([7]; oral 50 mg/kg): 36.2 ± 1.4 cpm/ug DNA | SPECIFIC ACTIVITY, TPA stimulated 3H-thymidine incorporation ([7]; oral 100 mg/kg): 15.0 ± 6.3 cpm/ug DNA | effect on 3H-DMBA binding to skin DNA (mouse skin DNA): inhibit ^3 H-DMBA binding to skin DNA | mean weekly weight ± S.D. ([8]; week 0, control 17.5 ± 1.4): 17.4 ± 0.6 grams | mean weekly weight ± S.D. ([8]; week 1, control 19.9 ± 1.2): 16.9 ± 1.0 grams | mean weekly weight ± S.D. ([8]; week 2, control 20.6 ± 1.0): 17.8 ± 0.8 grams | mean weekly weight ± S.D. ([8]; week 3, control 21.8 ± 0.8): 18.0 ± 1.3 grams | LIVER WEIGHT ([9]; control 0.057 ± 0.006, DHEA p < 0.05, clofibrate p < 0.002 vs control): 0.066 ± 0.005 gm/gm body weight | liver weight, in words ([9]; mice): no effect on liver weight; also recorded: neither increased liver weight | CATALASE ACTIVITY (liver catalase; control 31.1 ± 6.7, DHEA p < 0.05, clofibrate p < 0.001 vs control): 29.2 ± 2.6 Units per mg protein | catalase activity, in words (liver catalase; mice): no effect on liver weight or catalase activity | estrogenic and androgenic side-effects [10]: lacking the estrogenic and androgenic side-effects of DHEA | activity as an anti-obesity agent relative to DHEA ([11]; mouse, in vivo): several times more active than DHEA as an anti-obesity agent | anti-weight effect at the cancer preventive dosages ([11]; oral, mice): possible exception

C[C@]12CC[C@H](O)C[C@@H]1CC[C@@H]1[C@@H]2CC[C@]2(C)C(=O)C(Br)C[C@@H]12 (some centres unmarked) [16-bromo-epiandrosterone]
inhibition of mammalian G6PDH [12]: more potent inhibitor of mammalian G6PDH than DHEA | inhibition of Epstein-Barr virus-induced transformation [13]: inhibitors of Epstein-Barr virus-induced transformation of human lymphocytes
